The record followed here is patent US20250194597A1, “METHOD FOR INCREASING FLAVONOID CONTENT IN PLANT THROUGH TREATMENT WITH LOW-MOLECULAR-WEIGHT SULFUR COMPOUND” (REPUBLIC OF KOREA (RURAL DEVELOPMENT ADMINISTRATION), priority 2022, published 2025).

Structures are written as SMILES.

What all share (format): in vivo
Test [1] relates to Chinese cabbage cultivar 5923. As to the kind of experiment: Anthocyanin coloration observed with the naked eye, Chinese cabbage cultivar 5923 seedlings. The conditions noted are these: cultured 10 days. As to the method: (§1) 3-(3-Thienyl) acrylic acid (hereinafter referred to as S17) and 3-(2-Thienyl) acrylic acid (hereinafter referred to as 3-(2-S)) dissolved in DMSO at a concentration of 50 μM or 200 μM, respectively, were prepared, and seeds of commercial Chinese cabbage cultivars 5923 and Hwimori were sterilized and then germinated on ½ MS solid medium to prepare 4-day seedlings showing consistent growth.

Test [2] has as its system Chinese cabbage cultivar Whimori. As to the kind of experiment: Anthocyanin coloration observed with the naked eye, Chinese cabbage cultivar Whimori seedlings. The conditions noted are these: 50 μM or 200 μM, cultured 10 days. The method, then:
as §1

Test [3] deals with Chinese cabbage cultivar 5923. As to the kind of experiment: Flavonoid content of leaves by HPLC after aglyconization, cultivar 5923. The conditions noted are these: for cyanidin accumulation: 200 μM alone (no sucrose); for kaempferol content: treated alone (no sucrose), 50 and 200 μM, vs control. As to the method: as §1
(§2) The leaves of the cultivars 5923 and Whimori prepared in Example 1-1 were collected and crushed, and then extracted with 50% methanol containing 2N HCl at 95° C. for 2 hours, and flavonoid substances present in the form of glycosides in the plants were aglyconized and analyzed by HPLC. After the substances were separated through HPLC using a C18 column, peaks were detected at 350 nm and 520 nm, and flavonoids and anthocyanin non-glycosides in the extract were identified by comparing the retention time and UV spectrum of flavonol non-glycoside standards such as kaempferol, quercetin, myricetin and isorhamnetin, and anthocyanin non-glycoside standards such as pelargonidin, cyanidin and delphinidin, respectively, and the content of the identified flavonoid and anthocyanin substances was estimated based on the concentration of the standards and the area of the peak. As a control group, the cultivar 5923 or Whimori that was not treated with sulfur compounds was used.

Test [4] deals with Chinese cabbage cultivar Whimori. As to the kind of experiment: Flavonoid content of leaves by HPLC after aglyconization, cultivar Whimori. As to the method: as §1, §2
In a further test the test system is Arabidopsis thaliana. As to the kind of experiment: Anthocyanin coloration of Arabidopsis thaliana seedlings. The conditions noted are these: cultured 5 days; for anthocyanin coloration: 50 μM or 200 μM + 4% sucrose. The method, then:
To confirm whether anthocyanin coloring effect occurs when Arabidopsis thaliana, which is a cruciferous plant such as Chinese cabbage, is treated with S17 or 3-(2-S), Arabidopsis thaliana was treated with S17 or 3-(2-S) alone, and each was treated with 4% sucrose. Specifically, Arabidopsis thaliana seeds were germinated on ½ MS solid medium supplemented with 1% sucrose, and then day 6 seedlings were placed on ½ MS medium supplemented with each of S17 (50 μM or 200 μM)+4% sucrose, or 3-(2-S) (50 μM or 200 μM)+4% sucrose and cultured for 5 days to observe anthocyanin coloration.

The subject of test [5] is rice cultivar purple rice. As to the kind of experiment: Anthocyanin coloration of rice cultivar purple rice. The conditions noted are these: for anthocyanin coloration in the hypocotyls: cultured 7 days. As to the method:
To confirm whether anthocyanin coloring effects occur when not only dicotyledonous plants but also gramineous plants, which are monocotyledonous plants, are treated with S17 or 3-(2-S), seeds of the rice cultivar purple rice were sown on ½ MS medium containing each of S17 (40 μM) or 3-(2-S) (80 μM) and cultured for 7 days to observe anthocyanin coloration.

Take `O=C(O)/C=C/c1cccs1` [3-(2-S), 3-(2-Thienyl) acrylic acid]: the “anthocyanin coloration (naked eye)” value in test [1] (200 μM + 4% sucrose) is given as “Coloration was confirmed”. Further, in test [2], the “anthocyanin coloration (naked eye)” value is “red coloration in Chinese cabbage in a concentration-dependent manner”. In test [3], the cyanidin accumulation result was “cyanidin was accumulated” and the kaempferol content result is “increased in a concentration-dependent manner”. Besides, in test [4] (200 μM + 4% sucrose), the production of cyanidin result is reported as “produced”, the production of isorhamnetin result was “produced” and the production of quercetin entry is “produced”. For the same compound, the kaempferol content result in test [4] (+ 4% sucrose, concentration dependence) was “increased in a concentration-dependent manner”. In test [4] (treated alone (no sucrose)), the “kaempferol content compared to the control group” value is given as “remarkably increased”. The anthocyanin coloration entry with Arabidopsis thaliana is given as “anthocyanin coloration occurred”. Besides, the “anthocyanin coloration in the hypocotyls” value in test [5] (80 μM) is “anthocyanin coloration was strong”.
For the compound `O=C(O)/C=C/c1ccsc1` [S17, 3-(3-Thienyl) acrylic acid], the “anthocyanin coloration (naked eye)” value in test [1] (50 μM + 4% sucrose) is “coloration appeared on the back of the cotyledons and true leaves”; in test [1] (200 μM + 4% sucrose), “slightly increased coloration appeared”; in test [1] (200 μM alone, no sucrose) it was “coloration appeared on the back of the leaves”; in test [2] it was “red coloration in Chinese cabbage in a concentration-dependent manner”. Also, in test [3] (50 μM + 4% sucrose), the “kaempferol content increase compared to the control group” value is recorded as “up to 6.3 times”. Besides, the production of isorhamnetin result is reported as “confirmed” in test [3] (50 μM + 4% sucrose); “produced” in test [4] (50 μM and 200 μM + 4% sucrose). For the same compound, the production of quercetin result is “confirmed” in test [3] (50 μM + 4% sucrose); “produced” in test [4] (50 μM and 200 μM + 4% sucrose). The “cyanidin content compared to the control group” value in test [3] (200 μM + 4% sucrose) is “remarkably increased”. The cyanidin accumulation entry in test [3] is listed as “cyanidin was accumulated”. For the same compound, the anthocyanin production ability result in test [3] (200 μM vs 50 μM treated group, + 4% sucrose) is given as “remarkably enhanced”. Moreover, the kaempferol content result in test [3] is “increased in a concentration-dependent manner”. For the same compound, the “kaempferol content compared to the control group” value in test [4] (50 μM and 200 μM + 4% sucrose) is recorded as “remarkably increased”; in test [4] (treated alone (no sucrose)), “remarkably increased”. The production of cyanidin entry in test [4] (50 μM and 200 μM + 4% sucrose) is listed as “produced”. The anthocyanin coloration entry in the test with Arabidopsis thaliana is given as “anthocyanin coloration occurred”. In the test with Arabidopsis thaliana (+ 4% sucrose), the “anthocyanin coloring compared to the 3-(2-S) treated group” value was “stronger coloring”. Further, the “anthocyanin coloration in the hypocotyls” value in test [5] (40 μM) was “anthocyanin coloration was strong”. The “coloration-inducing effect (anthocyanin production effect) relative to 3-(2-S)” value in test [5] (S17 40 μM vs 3-(2-S) 80 μM) was “comparatively superior”.
